Measured values reported in PubChem BioAssay (NCI).
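GI50 marks 50% less growth. TGI: total growth inhibition.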

What was measured:
Assay in all cases: NCI-60 cell line screen, 384-well format
[1] = test system: 786-0 renal
[2] = test system: NCI/ADR-RES ovarian
[3] = test system: NCI-H226 lung
[4] = test system: U251 glioblastoma
[5] = test system: MCF7 breast
[6] = test system: A498 renal
[7] = test system: OVCAR-3 ovarian
[8] = test system: NCI-H322M lung
[9] = test system: SNB-75 CNS
[10] = test system: HCT-15 colon
[11] = test system: HT29 colon
[12] = test system: SF-539 CNS
[13] = test system: HCT-116 colon
[14] = test system: OVCAR-5 ovarian
[15] = test system: HS 578T breast
[16] = test system: SNB-19 CNS
[17] = test system: SK-MEL-28 melanoma
[18] = test system: SN12C renal
[19] = test system: RPMI-8226 leukemia
[20] = test system: COLO 205 colon
[21] = test system: TK-10 renal
[22] = test system: NCI-H460 NSCLC
[23] = test system: LOX IMVI melanoma
[24] = test system: NCI-H23 lung
[25] = test system: CAKI-1 renal
[26] = test system: SK-MEL-5 melanoma
[27] = test system: A549 NSCLC
[28] = test system: BT-549 breast
[29] = test system: SK-OV-3 ovarian
[30] = test system: SR leukemia
[31] = test system: RXF 393 renal
[32] = test system: SF-295 CNS
[33] = test system: HL-60(TB) leukemia
[34] = test system: MDA-MB-468 breast
[35] = test system: IGROV1 ovarian
[36] = test system: PC-3 prostate
[37] = test system: UACC-62 melanoma
[38] = test system: ACHN renal
[39] = test system: M14 melanoma
[40] = test system: EKVX NSCLC
[41] = test system: UO-31 renal
[42] = test system: CCRF-CEM leukemia
[43] = test system: HOP-62 NSCLC
[44] = test system: SF-268 CNS
[45] = test system: MOLT-4 leukemia
[46] = test system: MDA-MB-435 melanoma
[47] = test system: SW-620 colon
[48] = test system: DU-145 prostate
[49] = test system: HCC-2998 colon
[50] = test system: OVCAR-4 ovarian
[51] = test system: OVCAR-8 ovarian
[52] = test system: HOP-92 NSCLC
[53] = test system: T-47D breast
[54] = test system: MDA-MB-231 breast
[55] = test system: KM12 colon
[56] = test system: NCI-H522 lung
[57] = test system: UACC-257 melanoma
[58] = test system: MALME-3M melanoma

Compound: COc1cc(Nc2c(C#N)cnc3cc(OCCCN4CCN(C)CC4)c(OC)cc23)c(Cl)cc1Cl
- GI50 [1]: 0.764 µM
- TGI [1]: 2.58 µM
- GI50 [2]: 2.14 µM
- TGI [2]: 4.66 µM
- GI50 [3]: 2.77 µM
- TGI [3]: 6.25 µM
- GI50 [4]: 2.1 µM
- TGI [4]: 4.7 µM
- GI50 [5]: 2.4 µM
- TGI [5]: 5.38 µM
- GI50 [6]: 0.806 µM
- TGI [6]: 3.61 µM
- GI50 [7]: 1.49 µM
- TGI [7]: 5.02 µM
- GI50 [8]: 0.423 µM
- TGI [8]: 2.36 µM
- GI50 [9]: 0.951 µM
- TGI [9]: 3.32 µM
- GI50 [10]: 1.14 µM
- TGI [10]: 3.74 µM
- GI50 [11]: 1.43 µM
- TGI [11]: 3.59 µM
- GI50 [12]: 1.55 µM
- TGI [12]: 2.99 µM
- GI50 [13]: 1.15 µM
- TGI [13]: 2.57 µM
- GI50 [14]: 1.84 µM
- TGI [14]: 6.66 µM
- GI50 [15]: 1.29 µM
- TGI [15]: 4.24 µM
- GI50 [16]: 3.51 µM
- TGI [16]: 9.26 µM
- GI50 [17]: 1.56 µM
- TGI [17]: 2.98 µM
- GI50 [18]: 0.301 µM
- TGI [18]: 4.14 µM
- GI50 [19]: 0.898 µM
- TGI [19]: 2.35 µM
- GI50 [20]: 2.01 µM
- TGI [20]: 5.45 µM
- GI50 [21]: 0.584 µM
- TGI [21]: 3.52 µM
- GI50 [22]: 1.62 µM
- TGI [22]: 5.14 µM
- GI50 [23]: 0.637 µM
- TGI [23]: 2.13 µM
- GI50 [24]: 1.69 µM
- TGI [24]: 4.26 µM
- GI50 [25]: 0.431 µM
- TGI [25]: 2.09 µM
- GI50 [26]: 1.24 µM
- TGI [26]: 2.54 µM
- GI50 [27]: 1.6 µM
- TGI [27]: 4.64 µM
- GI50 [28]: 1.21 µM
- TGI [28]: 3.31 µM
- GI50 [29]: 0.416 µM
- TGI [29]: 4.21 µM
- GI50 [30]: 1.37 µM
- TGI [30]: 2.68 µM
- GI50 [31]: 0.368 µM
- TGI [31]: 1.46 µM
- GI50 [32]: 2.68 µM
- TGI [32]: 5.77 µM
- GI50 [33]: 1.39 µM
- TGI [33]: 2.72 µM
- GI50 [34]: 0.998 µM
- TGI [34]: 2.66 µM
- GI50 [35]: 0.146 µM
- TGI [35]: 0.899 µM
- GI50 [36]: 2.58 µM
- TGI [36]: 7.12 µM
- GI50 [37]: 1.44 µM
- TGI [37]: 2.88 µM
- GI50 [38]: 0.443 µM
- TGI [38]: 4.05 µM
- GI50 [39]: 1.16 µM
- TGI [39]: 2.49 µM
- GI50 [40]: 1.57 µM
- TGI [40]: 5.85 µM
- GI50 [41]: 0.476 µM
- TGI [41]: 2.56 µM
- GI50 [42]: 2.04 µM
- TGI [42]: 3.64 µM
- GI50 [43]: 1.69 µM
- TGI [43]: 5.02 µM
- GI50 [44]: 1.85 µM
- TGI [44]: 5.52 µM
- GI50 [45]: 0.612 µM
- TGI [45]: 2 µM
- GI50 [46]: 2.12 µM
- TGI [46]: 5.43 µM
- GI50 [47]: 2.62 µM
- TGI [47]: 5.86 µM
- GI50 [48]: 0.645 µM
- TGI [48]: 2.85 µM
- GI50 [49]: 2.2 µM
- TGI [49]: 4.35 µM
- GI50 [50]: 1.85 µM
- TGI [50]: 4.18 µM
- GI50 [51]: 1.94 µM
- TGI [51]: 5.02 µM
- GI50 [52]: 1.1 µM
- TGI [52]: 2.79 µM
- GI50 [53]: 1.34 µM
- TGI [53]: 5.41 µM
- GI50 [54]: 1.41 µM
- TGI [54]: 2.76 µM
- GI50 [55]: 0.448 µM
- TGI [55]: 4.03 µM
- GI50 [56]: 0.133 µM
- TGI [56]: 2.78 µM
- GI50 [57]: 1.61 µM
- TGI [57]: 2.98 µM
- GI50 [58]: 1.04 µM
- TGI [58]: 2.47 µM
